# Laboratory results reported in patent publication EP1394219A1, “PH sensitive cyanine dyes as reactive fluorescent reagents” (CARNEGIE MELLON UNIVERSITY, priority 1999, dated 2000).
# Read-outs that look alike come from different tables or passages of the source.
# Columns and labels:
# [1] = phosphate buffer, pH 5.85
# Method: (§1) The pKa was measured as the ratio of emission intensity at the pH measured and the emission intensity for maximum emission, or I/Io. […] The pKa can be calculated to be where I/Io = 0.5 or where the fluorescent probe is 50% protonated.
# [2] = Fluorescence and UV absorbance properties of the dyes in phosphate buffers of different pH, pKa from emission intensity ratio I/Io; conditions: for λmax pH 5.00 / λmaxpH 10.00: UV absorbance maximum; for λmax pH 5.00 / λmaxpH 10.00 / λEm(nm): phosphate buffer; for λmaxpH 10.00: pH 10.00; for λEm(nm): fluorescence emission maximum; for pKa: phosphate buffers, pH 5.85
# Method: as §1
# [3] = cited from earlier work; for pKa: product literature value, may be different in a cellular environment
Compound,pKa [1],λmax pH 5.00 [2] [nm],λmaxpH 10.00 [2] [nm],λEm(nm) [2] [nm],pKa [2],solubility in DMSO [3],pKa [3]
CC1(C)C(=CC=CC2=[N+](CCCCCC(=O)O)c3ccc(S(=O)(=O)[O-])cc3C2(C)C)Nc2ccc(S(=O)(=O)O)cc21 [Compound 3.39],7.75,550,476,565,–,–,–
CC1(C)C(=C/C=C/C=C/C2=[N+](CCCCS(=O)(=O)[O-])c3ccc(CC(=O)O)cc3C2(C)C)Nc2ccc(S(=O)(=O)O)cc21 [Compound 4],6.4,650,515,665,–,–,–
CC[N+]1=C(/C=C/C=C/C=C2Nc3ccc(CC(=O)O)cc3C2(C)C)C(C)(C)c2cc(S(=O)(=O)[O-])ccc21 [Compound 5],7.5,650,484,665,–,–,–
CC1(C)/C(=C\C=C\c2sc3ccccc3[n+]2CCCCS(=O)(=O)O)Nc2ccc(CC(=O)O)cc21 [Compound 6],–,552,433,580,9.8,–,–
CC1(C)\C(=C/C=C/C=C/c2sc3ccccc3[n+]2CCCCCC(=O)O)Nc2ccc(S(=O)(=O)O)cc21 [Compound 7],–,640,531,670,6.85,–,–
C[N+]1=C(/C=C/C=C/C=C2/Nc3ccc(S(=O)(=O)O)cc3C2(C)C)C(C)(C)c2cc(CN)ccc21 [Compound 8],–,650,531,665,7.25,–,–
CC1(C)C(/C=C/C=C/C=C2Nc3ccc4c(S(=O)(=O)O)cc(S(=O)(=O)O)cc4c3C2(C)C)=[N+](CCCCCC(=O)O)c2ccc(S(=O)(=O)[O-])cc21 [Compound 9],7.25,655,522,680,–,–,–
CC1(C)C(=C/C=C/C=C/C2=[N+](CCCCCC(=O)NN)c3ccc(S(=O)(=O)[O-])cc3C2(C)C)Nc2ccc(S(=O)(=O)O)cc21 [Compound 10],7.5,653,501,660,–,–,–
c1ccc2c(CN3CCOCC3)c3ccccc3c(CN3CCOCC3)c2c1 [LYSOSENSOR BLUE DND-167],–,–,–,–,–,soluble,5.1
CN(C)Cc1c2ccccc2c(CN(C)C)c2ccccc12 [LYSOSENSOR BLUE DND-192],–,–,–,–,–,soluble,7.5
CN(C)CCNc1ccc2c3c1cccc3c(=O)n1c3ccccc3nc21 [LYSOSENSOR GREEN DND-153],–,–,–,–,–,soluble,7.5
O=c1c2cccc3c(NCCN4CCOCC4)ccc(c32)c2nc3ccccc3n12 [LYSOSENSOR GREEN DND-189],–,–,–,–,–,soluble,5.2
